Results as given in PubChem BioAssay (NCI).
Where “and” joins values, the source holds several entries; their conditions need not be identical. Equal entries are not always repeated.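 96-well plates; 48 h exposure; 5 concentrations. Endpoints by linear interpolation between flanking doses. Not reached: highest tested concentration assigned. Here, GI50 denotes the concentration required for 50% inhibition of growth. TGI: concentration producing complete growth inhibition.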

Legend:
Experiment in all cases: NCI-60 cell line screen, 48 h
OVCAR-5 ovarian = test system: OVCAR-5 ovarian
SF-268 CNS = test system: SF-268 CNS
SF-295 CNS = test system: SF-295 CNS
HOP-62 NSCLC = test system: HOP-62 NSCLC
OVCAR-8 ovarian = test system: OVCAR-8 ovarian
A549 NSCLC = test system: A549 NSCLC
ACHN renal = test system: ACHN renal
SR leukemia = test system: SR leukemia
DMS 273 small cell lung = test system: DMS 273 small cell lung
SNB-78 CNS = test system: SNB-78 CNS
CAKI-1 renal = test system: CAKI-1 renal
HCC-2998 colon = test system: HCC-2998 colon
HL-60(TB) leukemia = test system: HL-60(TB) leukemia
HOP-18 NSCLC = test system: HOP-18 NSCLC

Structure (SMILES) | TGI (OVCAR-5 ovarian) [µM] | TGI (SF-268 CNS) [µM] | TGI (SF-295 CNS) [µM] | TGI (HOP-62 NSCLC) [µM] | TGI (OVCAR-8 ovarian) [µM] | TGI (A549 NSCLC) [µM] | TGI (ACHN renal) [µM] | TGI (SR leukemia) [µM] | GI50 (DMS 273 small cell lung) [µM] | TGI (DMS 273 small cell lung) | GI50 (SNB-78 CNS) [µM] | TGI (SNB-78 CNS) | GI50 (CAKI-1 renal) [µM] | TGI (CAKI-1 renal) | GI50 (HCC-2998 colon) [µM] | TGI (HCC-2998 colon) | GI50 (HL-60(TB) leukemia) | TGI (HL-60(TB) leukemia) | GI50 (HOP-18 NSCLC) [µM] | TGI (HOP-18 NSCLC)
COc1cccc(C2c3cc4c(cc3OC(N3CCOCC3)C2C)OCO4)c1 (stereo not given) | 71.4 | 85.5 | 35.7 | 60.8 | > 100 | 51.9 | > 100 | > 100 |  |  |  |  |  |  |  |  |  |  |  | 
O=C1/C(=C/c2ccc(Cl)c(Cl)c2)CN(C(=O)CCN2CCOCC2)C/C1=C\c1ccc(Cl)c(Cl)c1 |  |  |  |  |  |  |  |  | 0.23 | 2.37 µM and 0.608 µM | 2.22 | 9.93 µM and 6.3 µM | 0.579 | 3.4 µM and 3.53 µM and 2.03 µM | 0.773 | 3.56 µM and 2.08 µM | 0.362 µM and 0.277 µM | 1.1 µM and 0.632 µM | 2.11 | 5.96 µM and 5.49 µM
